Source: publication PMC3020594 (International journal of biological macromolecules, 2010)
Where two headings read alike, the source gives them in different places.

Target: human cytidine deaminase (CDA) (Homo sapiens, UniProt P32320, Y33G)
Experiment: biochemical
Format: biochemical

Sequence of human cytidine deaminase (CDA) (P32320 whole entry Y33G): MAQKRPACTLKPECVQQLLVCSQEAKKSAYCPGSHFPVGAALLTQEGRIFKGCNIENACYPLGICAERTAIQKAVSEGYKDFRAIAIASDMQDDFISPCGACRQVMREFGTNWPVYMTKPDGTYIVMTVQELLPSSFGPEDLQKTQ

Row | Molecule | Ki [nM] | Ki (read-out: Y33G) [nM]
1 | O=c1ncc(F)cn1[C@@H]1O[C@H](CO)[C@@H](O)[C@H]1O [5-FZEB, 5-Fluorozebularine] | 200 | 
2 | 6-[3,5(cytidyl)acryloylamino] hexanoic acid [CV6] |  | 3400
